Ends that are not written are not given here.
How the values were obtained:
[1] = tested on: CD14+ cells from patients and healthy donors PBMC; assay: Flow cytometry of IL8+ production in CD14+ cells of PBMC; type: cell-based, human; conditions: for number of CD14+IL8+ monocytes: cirrhotic monocytes vs control-treated cells from healthy donors, 10 mM 3-MA, 10 μM DPI, 30 μM N8, 4 hrs, FIG. 1B; for inflammatory signature in blood monocytes: healthy donors and patients, prominent increase in cells from patients, 4 hrs at 37° C., FIG. 1B and 1C
Experimental: FIG. 1: Inhibition of LAP components enhances the inflammatory signature in blood monocytes from patients with cirrhosis. (A). Inverse correlation between circulating C-Reactive Protein (CRP) levels and the number of LC3+ pHrodo+ phagosomes containing E. Coli bioparticles in blood monocytes from patients with cirrhosis (n=14). *p=0.005, r=-0.7 for LC3+ pHrodo+ phagosomes number vs CRP. (B). PBMC were incubated for 4 hrs at 37° C. with either vehicle, 10 mM 3-MA, 10 μM DPI, 30 μM N8 or control mutant […] peptides Percentage of IL8+ production in CD14+ cells from patients (n=8) and healthy donors (n=6) PBMC. (C). RT-PCR analysis of inflammatory gene expression in blood monocytes from healthy donors (n=6-8) and cirrhotic patients (n=6-11). Results are expressed as fold over respective control. *p<0.05, **p<0.001 for healthy vs cirrhotic. Statistical analysis was performed using Spearman correlation test (A), Mann-Whitney (b, for comparison between healthy and cirrhosis) and Wilcoxon matched-pairs signed rank test (B, for treatment). Peripheral blood mononuclear cells (PBMC) and monocyte isolation. PBMC were prepared from the blood of cirrhotic patients and healthy donors, using Ficoll density gradient centrifugation (Ficoll PaqueTM-plus, GE Healthcare, 17-1440-02), as previously described^43. Cell treatment. Human monocytes, THP1-XBlueTM-CD14 (Invivogen, Catalog #[…] THP1-FcγRIIA+-CD14+(kindly provided by Novimmune) monocytes were used. When indicated cells were exposed to either 30 μM chloroquine diphosphate (Sigma, C6628), 10 mM 3-Methyladenine (3-MA, Sigma, M9281-100 mg), 10 mM Diphenyleneiodonium chloride (DPI, Sigma, D2926-10 mg), or 10 mg/ml IVIg (Privigen, 100 mg/ml) for 4 hrs at 37° C., as indicated. […] In some experiments, cells were exposed to the preformed complex (10 μg/ml of mouse anti-hFcγRII mAb (clone AT-10, Santa Cruz, sc-13527) F(ab')2 fragments+20 μg/ml goat anti-mouse anti-kappa F(ab')2 fragments (Southern Biotech, 1052-01) or to 100 μg/ml of anti-hFcγRIIA mAb F(ab')2 fragments (clone IV.3), purified as we previously described^26. Flow cytometry. For surface and intracellular staining, PBMC (1×10^6) were centrifuged at 4° C. at 500 g for 5 min and stained in the dark for 30 min at 4° C. in flow cytometry staining buffer (5% FCS-PBS) containing fluorochrome-conjugated antibodies (APC-CD14, clone HCD14, Biolegend, 325608), CD11b-PE-vio 770 (clone REA592, Miltenyi Biotec, 130-109-287), CD16 Brilliant violet 605 (clone3G8, 302040, Biolegend) and FITC-FcγRIIA (clone […] Technologies, 60012FI). […] Data acquisition was performed using a BD Biosciences LSR Fortessa cytometer and data were analysed using FlowJo analysis software (Tree Star).

[2] = tested on: blood monocytes from healthy donors and cirrhotic patients; assay: RT-PCR analysis of inflammatory gene expression in blood monocytes; type: cell-based, human; conditions: cirrhotic monocytes vs control-treated cells from healthy donors; 10 mM 3-MA, 10 μM DPI, 30 μM N8; FIG. 1C
Experimental: FIG. 1: Inhibition of LAP components enhances the inflammatory signature in blood monocytes from patients with cirrhosis. (A). Inverse correlation between circulating C-Reactive Protein (CRP) levels and the number of LC3+ pHrodo+ phagosomes containing E. Coli bioparticles in blood monocytes from patients with cirrhosis (n=14). *p=0.005, r=-0.7 for LC3+ pHrodo+ phagosomes number vs CRP. (B). PBMC were incubated for 4 hrs at 37° C. with either vehicle, 10 mM 3-MA, 10 μM DPI, 30 μM N8 or control mutant […] peptides Percentage of IL8+ production in CD14+ cells from patients (n=8) and healthy donors (n=6) PBMC. (C). RT-PCR analysis of inflammatory gene expression in blood monocytes from healthy donors (n=6-8) and cirrhotic patients (n=6-11). Results are expressed as fold over respective control. *p<0.05, **p<0.001 for healthy vs cirrhotic. Statistical analysis was performed using Spearman correlation test (A), Mann-Whitney (b, for comparison between healthy and cirrhosis) and Wilcoxon matched-pairs signed rank test (B, for treatment). Human blood monocytes. Human monocytes were isolated from freshly isolated PBMC, using EasySep human monocyte enrichment kit (STEMCELL Technologies, 19058), and CD14+CD16+ monocytes were isolated by immunomagnetic negative selection according to the manufacturer's instructions. Cell treatment. […]

Compound | number of CD14+IL8+ monocytes [1] | inflammatory signature in blood monocytes [1] | gene expression of cytokines and chemokines [2]
Cn1cnc(N)c2ncnc1-2 [3-MA, 3-Methyladenine] | significantly higher | enhanced | significantly higher
N8 peptide: Tat-conjugated peptide of eight N-terminal amino acids (3-10) of p22phox that blocks the Rubicon-p22phox interaction (QIEWAMWA; also: Tat cell-penetrating peptide conjugate, attachment not given here; UniProt P13498 3-10, looked up, fragment) | significantly higher | enhanced | significantly higher
